Each block holds one molecule with its values, some of them ahead of it.
Experiments:
[1] = tested on: liver hydroxyproline (proline hydroxylase and lysine hydroxylase); assay: Pharmacological activity: inhibition of liver hydroxyproline synthesis in CCl4-treated rats; format: in vivo; conditions: versus CCl4 control
[2] = tested on: serum 7s-(IV)-collagen (proline hydroxylase and lysine hydroxylase); assay: Pharmacological activity: inhibition of serum 7s-(IV)-collagen synthesis in CCl4-treated rats; format: in vivo; conditions: versus CCl4 control
[3] = Enteral absorbability: serum levels after intragastral administration; format: in vivo, female Wistar rats; set-up: unit not given here; conditions: 50 mg/kg perorally (intragastral), mean of 4 measurements
Description: The absorbability was investigated on Wistar rats to which the compounds according to the invention were administered intragastrally. The serum level dropped in the first hours after administration of the substance, and after about 5 hours reached a plateau which still fell only slightly. The good absorbability of the substances can be concluded from the initially very high serum level directly after administration of the substances.
Female Wistar rats of about 150 g body weight are given an intragastral administration of 50 mg/kg of the substance under investigation by means of a stomach probe.
In each case 4 rats are anesthetized after 5; 10; 15; 30; 60; 120; 180 and 240 minutes and exsanguinated via the Vena Cava. The blood is centrifuged immediately and the compound administered is extracted from the serum using ether. After the ether has been evaporated, the residue is taken up in […] of mobile phase. The mobile phase consists of 0.05M phosphoric acid and acetonitrile (4:1). 50 μl of this sample are injected into a high performance liquid chromatography column. Detection is performed under UV of 200 nm with a retention time of 2.2 minutes.

proline hydroxylase [4] = conditions: in words; Tschank, G. et al., 1987; cited from earlier work
proline hydroxylase [5] = conditions: in words; K. Majamaa et al., 1984; cited from earlier work
[6] = tested on: Clq biosynthesis of macrophages; conditions: in words; W. Muller et al., 1978; cited from earlier work
[7] = 120 minutes, DL = detection limit

SMILES: COCCNC(=O)c1ccnc(C(=O)NCCOC)c1 [19 (from SA-88-0896), N,N'-bis(2-methoxyethyl)-pyridine-2,4-dicarboxylic acid diamide, reference compound]
- Liver hydroxyproline [% inhibition] ([1]; 2 × 25 mg, i.p.): 55 % inhibition
- Serum 7s-(IV)-collagen [% inhibition] ([2]; 2 × 25 mg, i.p.): 48 % inhibition

SMILES: CC(C)OCCCNC(=O)c1ccnc(C(=O)NCCCOC(C)C)c1 [20 (from SA-88-0896), N,N'-bis(3-isopropoxypropyl)-pyridine-2,4-dicarboxylic acid diamide, reference compound]
- Liver hydroxyproline [% inhibition] ([1]; 2 × 25 mg, p.o.): 49 % inhibition
- Serum 7s-(IV)-collagen [% inhibition] ([2]; 2 × 25 mg, p.o.): 11 % inhibition

- Serum level (x, SD) ([3]; 5 minutes): 45.3 ± 15.4
- Serum level (x, SD) ([3]; 10 minutes): 49.8 ± 3.6
- Serum level (x, SD) ([3]; 15 minutes): 39.9 ± 11.0
- Serum level (x, SD) ([3]; 30 minutes): 28.1 ± 3.2
- Serum level (x, SD) ([3]; 60 minutes): 9.4 ± 5.5
- Serum level (x, SD) [3, 7]: 0.3 ± 0.3
SMILES: COCCCNC(=O)c1ccnc(C(=O)NCCCOC)c1 [Example 1, Pyridine-2,4-dicarboxylic acid bis-N,N'-(methoxypropyl) amide]
- Liver hydroxyproline [% inhibition] ([1]; 2 × 2 mg, p.o.): 62 % inhibition
- Liver hydroxyproline [% inhibition] ([1]; 2 × 10 mg, p.o.): 90 % inhibition
- Serum 7s-(IV)-collagen [% inhibition] ([2]; 2 × 2 mg, p.o.): 28 % inhibition
- Serum 7s-(IV)-collagen [% inhibition] ([2]; 2 × 10 mg, p.o.): 67 % inhibition

- Serum level (x, SD) ([3]; 5 minutes): 51.4 ± 11.2
- Serum level (x, SD) ([3]; 10 minutes): 39.2 ± 4.0
- Serum level (x, SD) ([3]; 15 minutes): 29.4 ± 6.7
- Serum level (x, SD) ([3]; 30 minutes): 15.2 ± 5.6
- Serum level (x, SD) ([3]; 60 minutes): 1.4 ± 1.0
SMILES: CCOCCCNC(=O)c1ccnc(C(=O)NCCCOCC)c1 [Example 2, Pyridine-2,4-dicarboxylic acid bis-N,N'-(ethoxypropyl)amide]
- Liver hydroxyproline [% inhibition] ([1]; 2 × 2 mg, p.o.): 25 % inhibition
- Liver hydroxyproline [% inhibition] ([1]; 2 × 10 mg, p.o.): 60 % inhibition
- Serum 7s-(IV)-collagen [% inhibition] ([2]; 2 × 2 mg, p.o.): 2 % inhibition
- Serum 7s-(IV)-collagen [% inhibition] ([2]; 2 × 10 mg, p.o.): 35 % inhibition

- Serum level (x, SD) ([3]; 5 minutes): 8.9 ± 3.1
- Serum level (x, SD) ([3]; 10 minutes): 11.5 ± 0.6
- Serum level (x, SD) ([3]; 15 minutes): 14.7 ± 1.9
- Serum level (x, SD) ([3]; 30 minutes): 10.7 ± 1.9
- Serum level (x, SD) ([3]; 60 minutes): 11.3 ± 1.5
- Serum level (x, SD) [3, 7]: 5.5 ± 0.9
- Serum level (x, SD) ([3]; 180 minutes, DL = detection limit): 2.9 ± 0.5
- Serum level (x, SD) ([3]; 240 minutes, DL = detection limit): 1.7 ± 0.4
SMILES: COC(CNC(=O)c1ccnc(C(=O)NCC(OC)OC)c1)OC [Example 3, Pyridine-2,4-dicarboxylic acid bis-N,N'-(2-dimethoxyethyl) amide]

SMILES: O=C(O)c1ccnc(C(=O)O)c1 [pyridine-2,4-dicarboxylic acid]
- Activity as inhibitors in the cell culture (proline hydroxylase [4]): effective as inhibitors only in very high concentrations
- Inhibition of proline hydroxylase (proline hydroxylase [5]): inhibited effectively

SMILES: O=C(O)c1ccc(C(=O)O)nc1 [pyridine-2,5-dicarboxylic acid]
- Activity as inhibitors in the cell culture (proline hydroxylase [4]): effective as inhibitors only in very high concentrations
- Inhibition of proline hydroxylase (proline hydroxylase [5]): inhibited effectively

SMILES: c1ccc(-c2ccccn2)nc1 [α, α'-dipyridyl]
- Inhibition of Clq biosynthesis of macrophages [6]: leads to an inhibition of the Clq biosynthesis of macrophages

Reference: patent US5519038A, “N,N'-bis(alkoxyalkyl)-pyridine-2,4-dicarboxylic acid diamines” (Hoechst Aktiengesellschaft, priority 1989, dated 1996)
